In ChEMBL document CHEMBL1201862, “PubChem BioAssay data set” (2004):
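Results reflect a 48-hour exposure of cells in 96-well plates to compound at five concentrations. GI50 is the concentration that inhibits growth by half.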 Calls of active or inactive are those of the source. No stated cut-off is given here; in the data, active = GI50 up to about 1.1 µM and inactive = higher. Where a SMILES comes first, the peptide text is derived from it. [ ]: non-standard residue; d: D form. The star is where a group is joined. ξ: configuration not given here. NMeF = CN[CH](Cc1ccccc1)C(=O)O; ξNMe2Val = CC(C)C(C(=O)*)N(C)C; NMeV = CN[CH](C(=O)O)C(C)C; OtBu = CC(C)(C)O*

Legend:
Test in all cases: inhibition of tumour cell growth, NCI panel, 48 h
U-251 = system: U-251
IGROV-1 = system: IGROV-1
UO-31 = system: UO-31
M14 = system: M14
HL-60 = system: HL-60
SF-295 = system: SF-295
OVCAR-8 = system: OVCAR-8
CCRF-CEM = system: CCRF-CEM
OVCAR-3 = system: OVCAR-3
OVCAR-4 = system: OVCAR-4
HCC 2998 = system: HCC 2998
HOP-62 = system: HOP-62
NCI-H522 = system: NCI-H522
LOX IMVI = system: LOX IMVI
CAKI-1 = system: CAKI-1
SW-620 = system: SW-620
COLO 205 = system: COLO 205

Compound	GI50 (U-251)	GI50 (IGROV-1)	GI50 (UO-31)	GI50 (M14)	GI50 (HL-60)	GI50 (SF-295)	GI50 (OVCAR-8)	GI50 (CCRF-CEM)	GI50 (OVCAR-3)	GI50 (OVCAR-4)	GI50 (HCC 2998)	GI50 (HOP-62)	GI50 (NCI-H522)	GI50 (LOX IMVI)	GI50 (CAKI-1)	GI50 (SW-620)	GI50 (COLO 205)
CNC(=O)NCCN1N=C(C)/C(=C\c2ccccc2)CC1=O	> 100 µM (inactive)	> 100 µM (inactive)	> 100 µM (inactive)	> 100 µM (inactive)	> 100 µM (inactive)	> 100 µM (inactive)	> 100 µM (inactive)	> 100 µM (inactive)	> 100 µM (inactive)	> 100 µM (inactive)	> 100 µM (inactive)	> 100 µM (inactive)	> 100 µM (inactive)	> 100 µM (inactive)	> 100 µM (inactive)	> 100 µM (inactive)	–
C1CCC(N=C2N(C3CCCCC3)C(=NC3CCCCC3)N2C2CCCCC2)CC1	> 100 µM (inactive)	> 100 µM (inactive)	> 100 µM (inactive)	> 100 µM (inactive)	> 100 µM (inactive)	> 100 µM (inactive)	> 100 µM (inactive)	> 100 µM (inactive)	> 100 µM (inactive)	> 100 µM (inactive)	> 100 µM (inactive)	> 100 µM (inactive)	> 100 µM (inactive)	> 100 µM (inactive)	–	> 100 µM (inactive)	> 100 µM (inactive)
COc1ccc(/C(Cl)=C(\c2ccc(OCCN(C)C)cc2)c2ccc(OC(=O)C(C)(C)C)cc2)cc1	13.6 µM (inactive)	17.7 µM (inactive)	6.95 µM (inactive)	3.58 µM (inactive)	5.97 µM (inactive)	14.8 µM (inactive)	15.8 µM (inactive)	11 µM (inactive)	15.2 µM (inactive)	13.9 µM (inactive)	15.7 µM (inactive)	16.1 µM (inactive)	14.8 µM (inactive)	6.61 µM (inactive)	14.7 µM (inactive)	13.2 µM (inactive)	13.9 µM (inactive)
CCOC(=O)C1(C(=O)OCC)CC=C(C)CC12C(=O)Nc1ccccc12 (stereo unspecified)	> 100 µM (inactive)	> 100 µM (inactive)	–	> 100 µM (inactive)	> 100 µM (inactive)	> 100 µM (inactive)	> 100 µM (inactive)	> 100 µM (inactive)	> 100 µM (inactive)	> 100 µM (inactive)	> 100 µM (inactive)	> 100 µM (inactive)	> 100 µM (inactive)	> 100 µM (inactive)	> 100 µM (inactive)	> 100 µM (inactive)	> 100 µM (inactive)
ClC1c2ccccc2C2(c3ccccc3)OOC1(c1ccccc1)O2 (stereo unspecified)	1.9 µM (inactive)	–	1.69 µM (inactive)	1.45 µM (inactive)	0.136 µM (active)	2.62 µM (inactive)	2.03 µM (inactive)	–	1.77 µM (inactive)	1.48 µM (inactive)	2.34 µM (inactive)	10.3 µM (inactive)	0.243 µM (active)	0.352 µM (active)	2.37 µM (inactive)	1.39 µM (inactive)	1.87 µM (inactive)
O=S1(=O)COc2ccccc2-c2ncncc21	> 100 µM (inactive)	> 100 µM (inactive)	> 100 µM (inactive)	> 100 µM (inactive)	> 100 µM (inactive)	> 100 µM (inactive)	> 100 µM (inactive)	> 100 µM (inactive)	> 100 µM (inactive)	> 100 µM (inactive)	> 100 µM (inactive)	> 100 µM (inactive)	> 100 µM (inactive)	> 100 µM (inactive)	> 100 µM (inactive)	> 100 µM (inactive)	> 100 µM (inactive)
CC(C)C(C(=O)N(C)C(Cc1ccccc1)C(=O)N(C)C(C(=O)N(C)C(C(=O)N1CCCC1C(=O)OC(C)(C)C)C(C)C)C(C)C)N(C)C (stereo unspecified) (ξNMe2Val-[NMeF][NMeV][NMeV]P-OtBu; configuration not given here)	> 10 µM (inactive)	90.6 µM (inactive)	86.7 µM (inactive)	20 µM (inactive)	37.2 µM (inactive)	60.8 µM (inactive)	97.3 µM (inactive)	31.6 µM (inactive)	62.5 µM (inactive)	–	22.8 µM (inactive)	64.4 µM (inactive)	17.4 µM (inactive)	22.9 µM (inactive)	–	43 µM (inactive)	35.2 µM (inactive)
CCC(Oc1ccc(OC)c2c1C(=O)CCC2)C(=O)O (stereo unspecified)	> 100 µM (inactive)	> 100 µM (inactive)	> 100 µM (inactive)	> 100 µM (inactive)	> 100 µM (inactive)	> 100 µM (inactive)	> 100 µM (inactive)	> 100 µM (inactive)	> 100 µM (inactive)	> 100 µM (inactive)	> 100 µM (inactive)	> 100 µM (inactive)	> 100 µM (inactive)	> 100 µM (inactive)	–	> 100 µM (inactive)	> 100 µM (inactive)
CC(C)N1CCC2(CC1)NNc1ncccc1-n1cccc12	> 100 µM (inactive)	–	> 100 µM (inactive)	> 100 µM (inactive)	> 100 µM (inactive)	> 100 µM (inactive)	> 100 µM (inactive)	> 100 µM (inactive)	> 100 µM (inactive)	> 100 µM (inactive)	> 100 µM (inactive)	> 100 µM (inactive)	> 100 µM (inactive)	> 100 µM (inactive)	> 100 µM (inactive)	> 100 µM (inactive)	> 100 µM (inactive)
Oc1nnc(CNc2ccc(Cl)cc2Cl)c2ccccc12	18.2 µM (inactive)	25.5 µM (inactive)	17.3 µM (inactive)	32 µM (inactive)	22.5 µM (inactive)	20.9 µM (inactive)	–	> 100 µM (inactive)	18.9 µM (inactive)	16.5 µM (inactive)	20 µM (inactive)	20.5 µM (inactive)	18.2 µM (inactive)	46.3 µM (inactive)	24.1 µM (inactive)	37.1 µM (inactive)	45.8 µM (inactive)
CN(C)/C=N\c1ccn(CCO)c(=O)n1	> 100 µM (inactive)	> 100 µM (inactive)	> 100 µM (inactive)	> 100 µM (inactive)	> 100 µM (inactive)	–	> 100 µM (inactive)	> 100 µM (inactive)	> 100 µM (inactive)	> 100 µM (inactive)	> 100 µM (inactive)	> 100 µM (inactive)	> 100 µM (inactive)	> 100 µM (inactive)	–	> 100 µM (inactive)	> 100 µM (inactive)
CCn1c(=O)c2ccccc2n2c(=O)c3cc4ccccc4cc3nc12	> 100 µM (inactive)	> 100 µM (inactive)	> 100 µM (inactive)	> 100 µM (inactive)	91.8 µM (inactive)	28.3 µM (inactive)	52.2 µM (inactive)	> 100 µM (inactive)	> 100 µM (inactive)	–	> 100 µM (inactive)	96.8 µM (inactive)	98.9 µM (inactive)	> 100 µM (inactive)	> 100 µM (inactive)	> 100 µM (inactive)	> 100 µM (inactive)
